Reference: patent US20230416196A1, “DIMER OF BIGUANIDINES AND THEIR THERAPEUTIC USES” (INSTITUT CURIE, priority 2020, published 2023)

Experiments:
Assay type in all cases: cell-based, human
neutrophils = assay: Activation of neutrophils (CD64, CD66b flow cytometry); details: LCC-12 10 μM, 1 h, LPS; FIG. 6C
Procedure: Neutrophils. Peripheral blood samples were collected from healthy donors (Etablissement Français du Sang). Then, red cells in whole blood samples were lysed (ebioscience 10×RBC lysis buffer, 00-4300-54). The remaining cells were cultured in RPMI 1640 supplemented with glutamine, and 2% human serum, and activated 1 h with LPS (2 μg/mL) in presence of LCC-12 (10 μM). The granulocytes/neutrophils population was determined by flow cytometry using FSC, SSC and CD15 surface marker. The activation status of the granulocytes was assessed by measuring CD64 and CD66b surface markers by flow cytometry.

monocytes = assay: Activation of monocytes (CD25, CD80 flow cytometry); details: LCC-12 10 μM, 24 h, LPS; FIG. 6D
Procedure: Monocytes. Peripheral blood samples were collected from healthy donors (Etablissement Français du Sang). Pan monocytes were isolated by negative magnetic sorting using microbeads according to the manufacturer's instructions (Miltenyi Biotec, 130-096-537), and cultured in RPMI 1640 supplemented with glutamine, 10% fetal bovine serum. Monocytes were treated with lipopolysaccharides (LPS, 100 ng/mL, 24 h) to generate activated monocytes and were co-treated with LCC-12 (in-house, 10 μM, 24 h). The activation status of the monocytes was assessed by measuring CD25 and CD80 surface markers by flow cytometry.

[1] = test system: mitochondrial NAD^+ and NADH in aMDM; assay: Mass spectrometry-based metabolomics of mitochondrial NAD+ and NADH in aMDM; details: treatment during macrophage activation; FIG. 11D
Procedure: Mitochondrial extraction. Mitochondria were isolated using the Qproteome Mitochondria Isolation Kit (Qiagen, 37612) according to the manufacturer's protocol. In brief, cells were washed and centrifuged at 500× g for 10 min and the supernatant was removed. Cells were then washed with a solution of 0.9% NaCl (Sigma-Aldrich, 57653-250G) and resuspended in ice-cold Lysis Buffer and incubated at 4° C. for 10 min. The lysate was then centrifuged at 1000×g for 10 min at 4° C. and the supernatant carefully removed. Subsequently, the cell pellet was resuspended in disruption buffer. Complete cell disruption was obtained by using a dounce homogenizer (mitochondria for ICP-MS) or a blunt-ended needle and a syringe (mitochondria for metabolomics). The lysate was then centrifuged at 1000× g for 10 min at 4° C. and the supernatant transferred to a clean tube. The supernatant was then centrifuged at 6000× g for 10 min at 4° C. to obtain pellets containing mitochondria.
Quantitative metabolomics. In a typical experiment 1.5 million cells were used for total extracts and 15 million cells for mitochondrial extracts. Cells were harvested and the supernatant removed to generate the corresponding cell pellets. […] Peak detection and integration of the analytes were performed using the Agilent Mass Hunter quantitative software (B.07.01). […]

## N=C(N)NC(=N)NCCCCCCCCCCCCNC(=N)NC(=N)N [LCC-12, lipophilic copper clamp C12]
neutrophils
  activation of neutrophils in vitro: does not impact the activation
monocytes
  activation of monocytes: decreases the activation
[1]
  mitochondrial NAD^+ and NADH levels: decrease of both mitochondrial NAD^+ and NADH
